Reference: patent US8853258B2, “C-linked hydroxamic acid derivatives useful as antibacterial agents” (Pfizer Inc., priority 2009, dated 2014)
Converted amounts (≈) assume the structure as drawn. Where two headings read alike, the source gives them in different places.

How the values were obtained:
[1] = test system: Klebsiella pneumoniae: Ciprofloxacin-resistant isolate, ESBL, clinical isolate (KP-3700); assay: MIC determination (CLSI), KP-3700; format: cell-based
Outline: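 Strain KP-3700, a clinical isolate producing extended-spectrum β-lactamases and resistant to ciprofloxacin, was tested. Minimum inhibitory concentrations determined via CLSI dilution methodology (M7-A7; M100-S18).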

[2] = test system: Acinetobacter baumanii/haemolyticus: Multidrug-resistant clinical isolate (AB-3167); assay: MIC determination (CLSI), AB-3167; format: cell-based; details: for MIC: Acinetobacter baumannii
Outline: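 Multidrug-resistant clinical isolate AB-3167 (A. baumannii/haemolyticus) tested for minimum inhibitory concentration following CLSI dilution susceptibility standards M7-A7 and M100-S18.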

[3] = test system: Escherichia coli EC-1: VOGEL, mouse virulent; assay: MIC determination (CLSI), EC-1; format: cell-based; details: for MIC: Escherichia coli
Outline: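 E. coli Vogel, a mouse-virulent strain (EC-1), was tested. MICs were set by dilution susceptibility testing per CLSI standards M7-A7/M100-S18.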

[4] = test system: Pseudomonas aeruginosa UI-18: Wild-type (PA-7); assay: MIC determination (CLSI), PA-7; format: cell-based; details: for MIC: Pseudomonas aeruginosa
Outline: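 Wild-type P. aeruginosa UI-18 tested for minimum inhibitory concentration. Broth/agar dilution following CLSI standards (M7-A7, M100-S18).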

[5] = biological target: Pseudomonas aeruginosa LpxC enzyme (Pseudomonas aeruginosa (strain ATCC 15692 / DSM 22644 / CIP 104116 / JCM 14847 / LMG 12228 / 1C / PRS 101 / PAO1), UniProt P47205); assay: IC50 Assay, LpxC Enzyme from P. aeruginosa (PA LpxC Enzyme IC50); format: biochemical
Outline: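 Product formation quantified by RapidFire HTMS after a 1 h enzyme reaction quenched with 1N HCl.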

[6] = Acinetobacter baumanii/haemolyticus multidrug-resistant clinical isolate AB-3167
[7] = Escherichia coli EC-1 VOGEL, mouse virulent
[8] = Pseudomonas aeruginosa UI-18 wild-type PA-7
[9] = P. aeruginosa LpxC enzyme, read-out: PA LpxC enzyeme IC50
[10] = Table 3, read-out: PA LpxC enzyeme IC^50
[11] = Acinetobacter baumanii/haemolyticus AB-3167
[12] = Pseudomonas aeruginosa UI-18 (PA-7)
[13] = Table 1, MIC, read-out: AB-3167 (MIC)
[14] = Table 1, MIC, read-out: PA-7 (MIC)
[15] = Table 1, read-out: PA LpxC enzyeme IC50

Cc1cc(CCC(C)(C(=O)NO)S(C)(=O)=O)ccc1-c1ccc(C#N)cc1 (centres unmarked) [Example 162]
KP-3700 MIC [1]: 16 µg/mL
AB-3167 MIC [2, 6]: 16 µg/mL
EC-1 MIC [3, 7]: 2 µg/mL
PA-7 MIC [4, 8]: 4 µg/mL
IC50 [5, 9]: 0.241 nM

CC(CCc1ccc(-c2ccc(O)cc2)cc1F)(C(=O)NO)S(C)(=O)=O (centres unmarked) [Example 178]
KP-3700 MIC [1]: 4 µg/mL
AB-3167 MIC [2, 6]: 8 µg/mL
EC-1 MIC [3, 7]: 1 µg/mL
PA-7 MIC [4, 8]: 1 µg/mL
IC50 [5, 9]: 0.0592 nM

CC(CCc1ccc(OCc2ccc(-n3cccn3)cc2)cc1)(C(=O)NO)S(C)(=O)=O (centres unmarked) [Example 304, N-hydroxy-2-methyl-2-(methylsulfonyl)-4-(4-{[4-(1H-pyrazol-1-yl)benzyl]oxy}phenyl)butanamide]
KP-3700 MIC [1]: 16 µg/mL
MIC ([2]; Table 3, read-out: AB-3167 MIC): 32 µg/mL (≈ 72.1 µM)
MIC ([3]; read-out: EC-1 MIC): 4 µg/mL (≈ 9.02 µM)
MIC ([4]; Table 3, read-out: PA-7 MIC): 16 µg/mL (≈ 36.1 µM)
IC50 [5, 10]: 1.99 nM

CC(CCc1ccc(COc2cccc(F)c2)cc1)(C(=O)NO)S(C)(=O)=O (centres unmarked) [Example 229]
KP-3700 MIC [1]: 32 µg/mL
AB-3167 MIC [2, 11]: 16 µg/mL
EC-1 MIC ([3]; Escherichia coli EC-1): 8 µg/mL
PA-7 MIC [4, 12]: 8 µg/mL
IC50 [5, 9]: 3.24 nM

CC(CCc1ccc(-c2ccc(OCCCCO)cc2)cc1)(C(=O)NO)S(C)(=O)=O (centres unmarked) [Example 136]
KP-3700 MIC [1]: 1 µg/mL
AB-3167 MIC [2, 6]: ≧64 mg/L
EC-1 MIC [3, 7]: 0.125 µg/mL
PA-7 MIC [4, 8]: 1 µg/mL
IC50 [5, 9]: 0.205 nM

CC(=O)c1cc(-c2ccc(CCC(C)(C(=O)NO)S(C)(=O)=O)cc2)ccc1O (centres unmarked) [Example 180]
KP-3700 MIC [1]: 16 µg/mL
AB-3167 MIC [2, 6]: 16 µg/mL
EC-1 MIC [3, 7]: 4 µg/mL
PA-7 MIC [4, 8]: 8 µg/mL
IC50 [5, 9]: 0.826 nM

C[C@@](CCc1ccc(-c2ccc(OCC(=O)N3CCC(O)CC3)cc2)cc1)(C(=O)NO)S(C)(=O)=O [Example 221]
KP-3700 MIC [1]: ≧64 mg/L
AB-3167 MIC [2, 11]: ≧64 mg/L
EC-1 MIC ([3]; Escherichia coli EC-1): 16 µg/mL
PA-7 MIC [4, 12]: 16 µg/mL
IC50 [5, 9]: 0.533 nM

Cc1cc(-c2ccccc2)ccc1CCC(C)(C(=O)NO)S(C)(=O)=O (centres unmarked) [Example 1, N-Hydroxy-2-methyl-4-(3-methylbiphenyl-4-yl)-2(methylsulfonyl)butanamide]
KP-3700 MIC [1]: 8 µg/mL
MIC [2, 13]: 16 µg/mL (≈ 44.3 µM)
MIC ([3]; read-out: EC-1: (MIC)): 2 µg/mL (≈ 5.53 µM)
MIC [4, 14]: 4 µg/mL (≈ 11.1 µM)
IC50 [5, 15]: 1.68 nM

C[C@@](CCc1ccc(-c2ccc(C(=O)N3CCC[C@@H]3CO)cc2)cc1)(C(=O)NO)S(C)(=O)=O [Example 216]
KP-3700 MIC [1]: ≧64 mg/L
AB-3167 MIC [2, 11]: ≧64 mg/L
EC-1 MIC ([3]; Escherichia coli EC-1): 32 µg/mL
PA-7 MIC [4, 12]: 32 µg/mL
IC50 [5, 9]: 4.02 nM

C[C@@](CCc1ccc(-c2ccc(NS(C)(=O)=O)cc2)cc1)(C(=O)NO)S(C)(=O)=O [Example 210]
KP-3700 MIC [1]: 16 µg/mL
AB-3167 MIC [2, 11]: ≧64 mg/L
EC-1 MIC ([3]; Escherichia coli EC-1): 4 µg/mL
PA-7 MIC [4, 12]: 2 µg/mL
IC50 [5, 9]: 0.706 nM

CC(CCc1ccc(-c2ccc(O)c(F)c2)cc1)(C(=O)NO)S(C)(=O)=O (centres unmarked) [Example 138]
KP-3700 MIC [1]: 8 µg/mL
AB-3167 MIC [2, 6]: 32 µg/mL
EC-1 MIC [3, 7]: 2 µg/mL
PA-7 MIC [4, 8]: 1 µg/mL
IC50 [5, 9]: 0.335 nM

CC(=O)c1ccc(-c2ccc(CCC(C)(C(=O)NO)S(C)(=O)=O)cc2)cc1 (centres unmarked) [Example 108]
KP-3700 MIC [1]: 2 µg/mL
AB-3167 MIC [2, 6]: 32 µg/mL
EC-1 MIC [3, 7]: 0.5 µg/mL
PA-7 MIC [4, 8]: 0.5 µg/mL
IC50 [5, 9]: 0.176 nM

CSc1cccc(-c2ccc(CCC(C)(C(=O)NO)S(C)(=O)=O)cc2)c1 (centres unmarked) [Example 56]
KP-3700 MIC [1]: 4 µg/mL
AB-3167 MIC [2, 6]: 8 µg/mL
EC-1 MIC [3, 7]: 2 µg/mL
PA-7 MIC [4, 8]: 2 µg/mL
IC50 [5, 9]: 0.417 nM

Cc1cccc(-c2ccc(CCC(C)(C(=O)NO)S(C)(=O)=O)cc2)c1C (centres unmarked) [Example 78]
KP-3700 MIC [1]: 16 µg/mL
AB-3167 MIC [2, 6]: ≧64 mg/L
EC-1 MIC [3, 7]: 2 µg/mL
PA-7 MIC [4, 8]: 2 µg/mL
IC50 [5, 9]: 0.444 nM

CC(CCc1ccc(-c2ccc(F)cc2)c(O)c1)(C(=O)NO)S(C)(=O)=O (centres unmarked) [Example 21, 4-(4′-Fluoro-2-hydroxybiphenyl-4-yl)-N-hydroxy-2-methyl-2-(methylsulfonyl)butanamide]
KP-3700 MIC [1]: ≧64 mg/L
MIC [2, 13]: ≥ 64 µg/mL
MIC ([3]; read-out: EC-1: (MIC)): 16 µg/mL (≈ 41.9 µM)
MIC [4, 14]: 16 µg/mL (≈ 41.9 µM)
IC50 [5, 15]: 15.4 nM

C[C@@](CCc1ccc(-c2ccc(N)nc2)cc1)(C(=O)NO)S(C)(=O)=O [Example 204]
KP-3700 MIC [1]: ≧64 mg/L
AB-3167 MIC [2, 11]: ≧64 mg/L
EC-1 MIC ([3]; Escherichia coli EC-1): ≧64 mg/L
PA-7 MIC [4, 12]: 8 µg/mL
IC50 [5, 9]: 18.2 nM

CC(CCc1ccc(-c2cccc(Cl)c2)cc1)(C(=O)NO)S(C)(=O)=O (centres unmarked) [Example 88]
KP-3700 MIC [1]: 4 µg/mL
AB-3167 MIC [2, 6]: 4 µg/mL
EC-1 MIC [3, 7]: 1 µg/mL
PA-7 MIC [4, 8]: 1 µg/mL
IC50 [5, 9]: 0.364 nM

CC(CCc1ccc(-c2ccc(C#N)cc2)cc1F)(C(=O)NO)S(C)(=O)=O (centres unmarked) [Example 168]
KP-3700 MIC [1]: 2 µg/mL
AB-3167 MIC [2, 6]: ≧64 mg/L
EC-1 MIC [3, 7]: 1 µg/mL
PA-7 MIC [4, 8]: 1 µg/mL
IC50 [5, 9]: 0.427 nM

CC(CCc1ccc(-c2ccc3c(c2)C(=O)NC3)c(F)c1)(C(=O)NO)S(C)(=O)=O (centres unmarked) [Example 203]
KP-3700 MIC [1]: 32 µg/mL
AB-3167 MIC [2, 11]: ≧64 mg/L
EC-1 MIC ([3]; Escherichia coli EC-1): 8 µg/mL
PA-7 MIC [4, 12]: 4 µg/mL
IC50 [5, 9]: 0.659 nM

CC(CCc1ccc(-c2ccc3c(c2)CNC3)cc1)(C(=O)NO)S(C)(=O)=O (centres unmarked) [Example 173]
KP-3700 MIC [1]: ≧64 mg/L
AB-3167 MIC [2, 6]: ≧64 mg/L
EC-1 MIC [3, 7]: ≧64 mg/L
PA-7 MIC [4, 8]: 16 µg/mL
IC50 [5, 9]: 2.68 nM

CC(CCc1ccc(-c2ccc(C(=O)CO)cc2)cc1F)(C(=O)NO)S(C)(=O)=O (centres unmarked) [Example 183]
KP-3700 MIC [1]: 4 µg/mL
AB-3167 MIC [2, 6]: ≧64 mg/L
EC-1 MIC [3, 7]: 2 µg/mL
PA-7 MIC [4, 8]: 2 µg/mL
IC50 [5, 9]: 0.387 nM

CC(CCc1ccc(-c2ccc(CCCO)cc2)cc1)(C(=O)NO)S(C)(=O)=O (centres unmarked) [Example 47]
KP-3700 MIC [1]: 2 µg/mL
AB-3167 MIC [2, 6]: ≧64 mg/L
EC-1 MIC [3, 7]: 0.5 µg/mL
PA-7 MIC [4, 8]: 1 µg/mL
IC50 [5, 9]: 0.132 nM

CC(CCc1ccc(OCc2nc(-c3cccc(Cl)c3)no2)cc1)(C(=O)NO)S(C)(=O)=O (centres unmarked) [Example 298, 4-(4-{[3-(3-chlorophenyl)-1,2,4-oxadiazol-5-yl]methoxy}phenyl)-N-hydroxy-2-methyl-2-(methylsulfonyl)butanamide]
KP-3700 MIC [1]: 32 µg/mL
MIC ([2]; Table 3, read-out: AB-3167 MIC): 16 µg/mL (≈ 33.3 µM)
MIC ([3]; read-out: EC-1 MIC): 16 µg/mL (≈ 33.3 µM)
MIC ([4]; Table 3, read-out: PA-7 MIC): 32 µg/mL (≈ 66.7 µM)
IC50 [5, 10]: 1.66 nM

CC(C)c1ccc(-c2noc(COc3ccc(CCC(C)(C(=O)NO)S(C)(=O)=O)cc3)n2)cc1 (centres unmarked) [Example 299, N-hydroxy-4-(4-{[3-(4-isopropylphenyl)-1,2,4-oxadiazol-5-yl]methoxy}phenyl)-2-methyl-2-(methylsulfonyl)butanamide]
KP-3700 MIC [1]: ≧64 mg/L
MIC ([2]; Table 3, read-out: AB-3167 MIC): ≥ 64 µg/mL
MIC ([3]; read-out: EC-1 MIC): 16 µg/mL (≈ 32.8 µM)
MIC ([4]; Table 3, read-out: PA-7 MIC): ≥ 64 µg/mL
IC50 [5, 10]: 3.93 nM

CC(CCc1ccc(-c2ccc(N3CCNCC3)cc2)cc1)(C(=O)NO)S(C)(=O)=O (centres unmarked) [Example 185]
KP-3700 MIC [1]: ≧64 mg/L
AB-3167 MIC [2, 6]: ≧64 mg/L
EC-1 MIC [3, 7]: 16 µg/mL
PA-7 MIC [4, 8]: 8 µg/mL
IC50 [5, 9]: 6.22 nM
